Test results taken from US20160263094A1, “Pantoprazole Sodium Composition Lyophilized Powder for Injection” (priority 2013, published 2016).

System: gastric ulcer
Test: Glacial acetic acid-induced gastric ulcer in SD rats
Format: in vivo
Settings: 1.3 mg/kg, control group 2 continuous administration 15 d, treatment groups 10 d, three times a day
Description: 50 SD rats are used, made to starve for 24 h before testing. The abdominal cavity is opened under ether anesthesia, a glass tube with the inner diameter of 5 mm and the length of 30 mm is vertically placed on the surface of serosa of the gastric body and 0.2 ml of glacial acetic acid is added into the tube cavity. The glacial acetic acid is dipped out with a cotton swab after 5 min, and the surgical incision is sutured. Normal diet is permitted after the surgery, and animals are randomly divided into 5 groups on the next day: a control group 1 (distilled water), a control group 2 (pantoprazole sodium for injection), with continuous administration for 15 d, a treatment group 1 (embodiment 1), a treatment group 2 (embodiment 2) and a treatment group 3 (embodiment 3); and continuous administration is performed for 10 d, three times a day. The stomach is taken out by anatomy, fixed with formaldehyde, cut open along the greater curvature of the stomach and flat spread on a glass plate, and the transverse diameter d1 and the vertical diameter d2 of an ulcer are measured. The area of the ulcer S (mm2) is calculated according to a formula S=π×(d1/2)×(d2/2) to serve as an ulcer index, and ulcer healing rate and ulcer inhibition rate are calculated.

Q: `COc1ccnc(C[S+]([O-])c2nc3cc(OC(F)F)ccc3[n-]2)c1OC.[Na+]` (stereo not shown) [Control group 2, 5-difluoromethoxy-2-[(3,4-dimethoxy-2-pyridinyl)methyl]sulfinyl-1H-benzimidazole] was tested. Which Healing rate did it give?
A: Its Healing rate is 90%.

Q: What about the “Number of healed animals” value of the same compound?
A: The value was 9.

Q: And the “Ulcer index (x ± s), ulcer area S=π×(d1/2)×(d2/2)” value?
A: The value was 6.3 ± 6.1 mm2.

Q: What about the Ulcer inhibition rate of the same compound?
A: Its Ulcer inhibition rate is 65.1%.
